Data: ChEMBL document CHEMBL1201862, “PubChem BioAssay data set” (2004)
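Exposure lasted 48 hours, with cells grown in 96-well plates and compounds tested at five concentrations. Abbreviation: GI50, concentration required for 50% inhibition of growth.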 Calls of active or inactive are those of the source. Rule as the data show it: active = GI50 up to about 1.1 µM and inactive = higher.

Columns and labels:
Experiment in all cases: growth of human tumour cells (NCI), 48 h
[1] = tested on: BT-549
[2] = tested on: CAKI-1
[3] = tested on: HCC 2998
[4] = tested on: HOP-62
[5] = tested on: Hs-578T
[6] = tested on: K562
[7] = tested on: LOX IMVI
[8] = tested on: MDA-MB-231
[9] = tested on: Malme-3M
[10] = tested on: NCI-H226
[11] = tested on: NCI-H522
[12] = tested on: NCI/ADR-RES
[13] = tested on: OVCAR-3
[14] = tested on: RPMI-8226
[15] = tested on: RXF 393
[16] = tested on: SR
[17] = tested on: UACC-257

SMILES | GI50 [1] | GI50 [2] | GI50 [3] | GI50 [4] | GI50 [5] | GI50 [6] | GI50 [7] | GI50 [8] | GI50 [9] | GI50 [10] | GI50 [11] | GI50 [12] | GI50 [13] | GI50 [14] | GI50 [15] | GI50 [16] | GI50 [17]
O=c1c2c3c(sc2nc(CN2CCNCC2)n1-c1ccccc1)CCCC3 | > 100 µM (inactive) | 90.8 µM (inactive) | > 100 µM (inactive) | > 100 µM (inactive) | > 100 µM (inactive) | > 100 µM (inactive) | > 100 µM (inactive) | > 100 µM (inactive) | > 100 µM (inactive) | > 100 µM (inactive) | > 100 µM (inactive) | > 100 µM (inactive) | > 100 µM (inactive) | > 100 µM (inactive) | > 100 µM (inactive) | > 100 µM (inactive) | > 100 µM (inactive)
CC(=O)OCC1OC(n2c(-c3ccc(Cl)cc3)cc(-c3ccccc3)c(C#N)c2=S)C(OC(C)=O)C(OC(C)=O)C1OC(C)=O (stereo unspecified) | 5.01 µM (inactive) | 13.9 µM (inactive) | 7.14 µM (inactive) | 7.85 µM (inactive) | 2.71 µM (inactive) | 3.66 µM (inactive) | 4.29 µM (inactive) | 4.33 µM (inactive) | 2.87 µM (inactive) | 4.28 µM (inactive) | 18.1 µM (inactive) | 6.71 µM (inactive) | 10.6 µM (inactive) | 8.91 µM (inactive) | 13.3 µM (inactive) | 10.7 µM (inactive) | 
CN(C)c1ccc(C2SCC(=O)N2NS(=O)(=O)c2cccc(C(=O)O)c2)cc1 (stereo unspecified) | > 100 µM (inactive) | > 100 µM (inactive) | > 100 µM (inactive) | > 100 µM (inactive) | > 100 µM (inactive) | 35.6 µM (inactive) | > 100 µM (inactive) | > 100 µM (inactive) | 99.8 µM (inactive) | 52 µM (inactive) | 28.2 µM (inactive) |  | > 100 µM (inactive) | 45.9 µM (inactive) | > 100 µM (inactive) |  | > 100 µM (inactive)
N#Cc1c(-c2ccccc2)cn(C(=O)c2ccccc2)c1N |  |  | < 0.01 µM (active) | > 100 µM (inactive) | > 100 µM (inactive) | > 100 µM (inactive) | > 100 µM (inactive) | > 100 µM (inactive) | > 100 µM (inactive) | > 100 µM (inactive) | > 100 µM (inactive) | > 100 µM (inactive) | > 100 µM (inactive) | > 100 µM (inactive) |  | > 100 µM (inactive) | 
